Positions count from the first letter of the chain named. Like-named read-outs stand apart in the source and are kept apart here.
How the values were obtained:
wild type rP2X2 [1] = molecular target: T1, wild type rP2X2 (Rattus norvegicus, UniProt P49653); assay: Two-electrode voltage clamp of Xenopus oocytes expressing wild type rP2X2; assay type: cell-based
T1 construct: expressed in transfected cells; host or cells: Xenopus laevis oocytes (RNA injection)
T1 sequence (P49653 1-472): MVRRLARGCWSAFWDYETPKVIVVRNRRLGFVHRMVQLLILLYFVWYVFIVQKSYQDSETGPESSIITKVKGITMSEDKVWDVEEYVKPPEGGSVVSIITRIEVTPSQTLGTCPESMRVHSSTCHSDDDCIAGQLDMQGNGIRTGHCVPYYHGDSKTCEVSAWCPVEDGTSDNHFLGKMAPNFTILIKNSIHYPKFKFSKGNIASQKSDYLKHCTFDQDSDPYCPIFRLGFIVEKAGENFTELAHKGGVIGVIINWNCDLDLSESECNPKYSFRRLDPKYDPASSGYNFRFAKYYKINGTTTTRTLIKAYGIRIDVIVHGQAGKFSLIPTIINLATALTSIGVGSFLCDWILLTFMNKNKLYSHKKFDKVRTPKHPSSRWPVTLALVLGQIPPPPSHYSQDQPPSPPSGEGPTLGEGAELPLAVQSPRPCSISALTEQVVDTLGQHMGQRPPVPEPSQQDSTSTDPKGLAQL

[2] = molecular target: T2, rP2X2 K69C/H319K double mutant (Rattus norvegicus, UniProt P49653, H319K/K69C); assay: Two-electrode voltage clamp of Xenopus oocytes expressing K69C/H319K double mutant rP2X2; assay type: cell-based
T2 construct: expressed in transfected cells; host or cells: Xenopus laevis oocytes (RNA injection)
T2 sequence (P49653 1-472 K69C/H319K): T1 sequence (P49653 1-472) with K69C, H319K

[3] = molecular target: T3, rP2X2 K308C mutant receptor (Rattus norvegicus, UniProt P49653, K308C); assay: Two-electrode voltage clamp of Xenopus oocytes expressing K308C mutant rP2X2; assay type: cell-based; details: for restoration of ability to respond to ATP after test compound: test compound 1 mM, 15 minutes, then 1,000 µM ATP
T3 construct: expressed in transfected cells; host or cells: Xenopus laevis oocytes (RNA injection)
T3 sequence (P49653 1-472 K308C): T1 sequence (P49653 1-472) with K308C

wild type rP2X2 [4] = molecular target: T1, wild type rP2X2; details: cited from earlier work
[5] = molecular target: T4, rP2X2 K69C mutant receptor (Rattus norvegicus, UniProt P49653, K69C); assay: Two-electrode voltage clamp of Xenopus oocytes expressing K69C mutant rP2X2; assay type: cell-based; details: for Response after challenge compound (nA) 100 µM Zn / Response after challenge compound (nA) 1,000 µM ATP / Response after challenge compound (nA) pH 6.5: test compound 50 µM, 5 minutes; for binding to and activation of K69C receptors: tested for responses to zinc, pH 6.5 and ATP, then challenge with AM546 or MTSEA; for restoration of ability to respond to ATP after test compound: test compound 1 mM, 1 minute, then 1,000 µM ATP; for amplitude of response to 100 µM zinc: K69C after AM546 then MTSEA, N = 6
T4 construct: expressed in transfected cells; host or cells: Xenopus laevis oocytes (RNA injection)
T4 sequence (P49653 1-472 K69C): T1 sequence (P49653 1-472) with K69C

uninjected oocytes = assay: Two-electrode voltage clamp of uninjected oocytes (control); assay type: cell-based, Xenopus laevis; details: N = 14
Protocol: This study was carried out in strict accordance with the recommendations in the Guide for the Care and Use of Laboratory Animals of the National Institutes of Health. The protocol was approved by the University Committee on the Use and Care of Animals of the University of Michigan (Protocol 08396-4). The rP2X2 receptors were expressed in defolliculated stage V-VI Xenopus laevis oocytes. Oocytes were harvested using procedures that have been described in detail previously.
RNAs encoding wild type and mutant rP2X2 receptors were synthesized using the mMessage mMachine T7 kit (Life Technologies, Grand Island, NY). Each oocyte was injected with 50 nl of RNA (10–20 ng/µl). Two-electrode voltage clamp experiments were performed 2–5 days after RNA injection. Except where indicated otherwise, recordings were made at a holding potential of −50 mV. Recording electrodes were pulled from thin walled borosilicate glass and had resistances of 0.2–1 MΩ. Currents were recorded with a Turbo TEC-03 or TEC-10 voltage clamp amplifier (npi electronic GmBH, Tamm, Germany). Data acquisition was performed using a Digidata 1322A interface controlled by pCLAMP 9 or 10 (Molecular Devices, Sunnyvale, CA).
To regulate the delivery of most test solutions into the recording chamber, we used a gravity fed valve array. […]

[6] = tested on: P2X1 mutant homologous to K69A; details: ref [28]; cited from earlier work
[7] = AM546-treated K69C, no exogenous ATP

Compound: Nc1ncnc2c1ncn2C1OC(COP(=O)(O)OP(=O)(O)OP(=O)(O)O)C(O)C1O (stereo not drawn) [ATP, Disodium ATP]
- inward current (wild type rP2X2 [1]; 1,000 µM ATP, same RNA concentration as K69C, 'over' refers to magnitude): over −20 µA
- EC50 (wild type rP2X2 [1]; wild type rP2X2): 32 ± 1 µM
- EC50 [2]: ~145 µM
- EC50 ([3]; MTSEA-modified K308C): 374 ± 35 µM
- Hill coefficient (ATP) ([3]; MTSEA-modified K308C): 1.3±0.1
- Hill Coefficient (typical value for wild type rP2X2) (wild type rP2X2 [4]; typical value used to estimate basal ATP levels, ref not given): 1.5
- ATP response ([5]; AM546-modified K69C, 1,000 µM ATP, 'greater than' refers to magnitude): greater than −100 nA
- EC50 ([5]; MTSEA-modified K69C): 924 ± 102 µM
- Hill coefficient (ATP) ([5]; MTSEA-modified K69C): 1.4±0.1

Compound: Alexa Fluor 568 C5-maleimide [AM-568]
- Response after challenge compound (nA) 100 µM Zn ([5]; then challenge compound MTSEA): −9±4 nA
- Response after challenge compound (nA) 1,000 µM ATP ([5]; then challenge compound MTSEA): −41±9 nA
- Response after challenge compound (nA) pH 6.5 ([5]; then challenge compound MTSEA): −25±0 nA
- binding to and activation of K69C receptors [5]: could bind to, but not activate

Compound: Alexa Fluor 594 C5-maleimide [AM-594]
- Response after challenge compound (nA) 100 µM Zn ([5]; then challenge compound MTSEA): −2±1 nA
- Response after challenge compound (nA) 1,000 µM ATP ([5]; then challenge compound MTSEA): −26±7 nA
- Response after challenge compound (nA) pH 6.5 ([5]; then challenge compound MTSEA): −7±5 nA
- binding to and activation of K69C receptors [5]: could bind to, but not activate

Compound: C[N+](C)(C)CCSS(C)(=O)=O.[Cl-] [MTSET, [2-(Trimethylammonium)ethyl] Methanethiosulfonate Chloride]
- restoration of ability to respond to ATP after test compound [3]: None of these compounds restored the ability
- restoration of ability to respond to ATP after test compound [5]: None of these compounds restored the ability

Compound: [Cl-].[Cl-].[Zn+2] [zinc, Zinc chloride]
- current as % of the maximum after addition of zinc (wild type rP2X2 [1]; 20 µM zinc, ATP giving 10% of maximum at pH 7.5): 80–90%
- additional inward current in response to zinc ([2]; 50 µM zinc, after AM546, 'over' refers to magnitude): over −6 µA
- current in response to zinc alone ([2]; 50 µM zinc, before AM546, no exogenous ATP, N = 12): −2.9±0.9 µA
- Izinc average current ([3]; untreated K308C, 100 µM zinc, N = 6): −5±4 nA
- enhancement of the current by a zinc jump (wild type rP2X2 [4]; untreated wild type, EC10 ATP, pH 7.5, 20 µM zinc, ref [17], [20]): approximately 8 fold
- amplitude of response to 100 µM zinc ([5]; with 1,000 µM ATP): 2.74±0.47 µA
- amplitude of response to 100 µM zinc ([5]; without ATP): 0.39±0.06 µA
- average response to a zinc jump (uninjected oocytes; 50 µM zinc): +8.6±1.9 nA

Compound: Alexa Fluor 488 C5-maleimide [AM-488]
- Response after challenge compound (nA) 100 µM Zn ([5]; then challenge compound AM-546): −10±9 nA
- Response after challenge compound (nA) 1,000 µM ATP ([5]; then challenge compound AM-546): −10±3 nA
- Response after challenge compound (nA) pH 6.5 ([5]; then challenge compound AM-546): −16±5 nA
- binding to and activation of K69C receptors [5]: could bind to, but not activate

Compound: CSS(C)(=O)=O [MMTS, Methyl Methanethiosulfonate]
- restoration of ability to respond to ATP after test compound [3]: None of these compounds restored the ability
- restoration of ability to respond to ATP after test compound [5]: None of these compounds restored the ability

Compound: Cc1ccc(C(=O)Nc2ccc(S(=O)(=O)O)c3cc(S(=O)(=O)O)cc(S(=O)(=O)O)c23)cc1NC(=O)c1cccc(NC(=O)Nc2cccc(C(=O)Nc3cc(C(=O)Nc4ccc(S(=O)(=O)O)c5cc(S(=O)(=O)O)cc(S(=O)(=O)O)c45)ccc3C)c2)c1 [suramin, Suramin]
- outward suramin currents due to inhibition of basal ATP (wild type rP2X2 [1]; cells with maximal currents to saturating ATP of about −20 µA): 10–500 nA
- Hill coefficient (suramin) (wild type rP2X2 [1]; no exogenous ATP, N = 11): 1.2±0.1
- IC50 (wild type rP2X2 [1]; read-out: suramin IC50 (outward current response)): 8.3 ± 1.1 µM
- IC50 for suramin [6]: normal
- Hill coefficient (suramin activation) [5, 7]: 1.1±0.1
- maximal response to suramin (inward current) [5, 7]: −450±51 nA
- response to suramin ([5]; K69C prior to AM546 treatment, no exogenous ATP): no response
- EC50 ([5]; read-out: suramin EC50 (activation)): 52 ± 5 µM
- average suramin response (uninjected oocytes): −1.3±1.9 nA

— publication PMC3480388 (PLoS ONE, 2012)
